The test system of the first test is NCI-H2228. As to the kind of experiment: relative viability (nuclei count vs DMSO), 5 days (fraction); higher = more cells survive. The settings on record: first compound 20 µM. Summed up: (§1)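 Relative viability equals treated-well nuclei counts divided by vehicle-well nuclei counts. Counts came from 4× images of lung cancer cell lines grown in 1536-well plates for 5 days after pin-tool dosing on the day after seeding. Dosing used one drug alone or a fixed anchor-drug dose plus five library-drug doses (not always all listed) in √10 steps, and values are medians of duplicate plates.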
In turn, `COCC1(CO)C(=O)C2CCN1CC2` (configuration not stated) [PRIMA-1MET] + N=C(N)NC(=N)NCCc1ccccc1 [Phenformin] (partner 250 µM) registered a relative viability of 0.0266.
The same measure, in the same setting: next, `COCC1(CO)C(=O)C2CCN1CC2` (configuration not stated) [PRIMA-1MET] + CC(=O)c1c(C)c2cnc(Nc3ccc(N4CCNCC4)cn3)nc2n(C2CCCC2)c1=O [Palbociclib] (partner 0.5 µM): 0.0392; `COCC1(CO)C(=O)C2CCN1CC2` (configuration not stated) [PRIMA-1MET] + Cc1nc(Nc2ncc(C(=O)Nc3c(C)cccc3Cl)s2)cc(N2CCN(CCO)CC2)n1 [Dasatinib] (partner 0.075 µM): 0.0268.
The same measure, in the same setting: then `COCC1(CO)C(=O)C2CCN1CC2` (configuration not stated) [PRIMA-1MET] + O=C(c1cc(Cc2n[nH]c(=O)c3ccccc23)ccc1F)N1CCN(C(=O)C2CC2)CC1 [Olaparib] (partner 8 µM), with 0.0565.

Another test concerns NCI-H2342. Described as above. The conditions noted are these: first compound 0.2 µM. Summed up: as §1
`COCC1(CO)C(=O)C2CCN1CC2` (configuration not stated) [PRIMA-1MET] + N=C(N)NC(=N)NCCc1ccccc1 [Phenformin] (partner 250 µM) had a relative viability of 0.58.
On the same count and under the same terms, next, `COCC1(CO)C(=O)C2CCN1CC2` (configuration not stated) [PRIMA-1MET] + CC(=O)c1c(C)c2cnc(Nc3ccc(N4CCNCC4)cn3)nc2n(C2CCCC2)c1=O [Palbociclib] (partner 0.5 µM): 0.602; `COCC1(CO)C(=O)C2CCN1CC2` (configuration not stated) [PRIMA-1MET] + Cc1nc(Nc2ncc(C(=O)Nc3c(C)cccc3Cl)s2)cc(N2CCN(CCO)CC2)n1 [Dasatinib] (partner 0.075 µM): 0.327.
As to `COCC1(CO)C(=O)C2CCN1CC2` (configuration not stated) [PRIMA-1MET] + O=C(c1cc(Cc2n[nH]c(=O)c3ccccc23)ccc1F)N1CCN(C(=O)C2CC2)CC1 [Olaparib] (partner 8 µM), the relative viability stood at 0.414.

Still in this test, the particulars now being: first compound 0.6325 µM.
`COCC1(CO)C(=O)C2CCN1CC2` (configuration not stated) [PRIMA-1MET] + N=C(N)NC(=N)NCCc1ccccc1 [Phenformin] (partner 250 µM): the relative viability was found to be 0.667.
On the same count and under the same terms, then `COCC1(CO)C(=O)C2CCN1CC2` (configuration not stated) [PRIMA-1MET] + CC(=O)c1c(C)c2cnc(Nc3ccc(N4CCNCC4)cn3)nc2n(C2CCCC2)c1=O [Palbociclib] (partner 0.5 µM), with 0.452; and `COCC1(CO)C(=O)C2CCN1CC2` (configuration not stated) [PRIMA-1MET] + Cc1nc(Nc2ncc(C(=O)Nc3c(C)cccc3Cl)s2)cc(N2CCN(CCO)CC2)n1 [Dasatinib] (partner 0.075 µM), with 0.305.
For the compound `COCC1(CO)C(=O)C2CCN1CC2` (configuration not stated) [PRIMA-1MET] + O=C(c1cc(Cc2n[nH]c(=O)c3ccccc23)ccc1F)N1CCN(C(=O)C2CC2)CC1 [Olaparib] (partner 8 µM), the relative viability was 0.432.

The test is the same for the next values; noted with them: first compound 2 µM.
In turn, `COCC1(CO)C(=O)C2CCN1CC2` (configuration not stated) [PRIMA-1MET] + N=C(N)NC(=N)NCCc1ccccc1 [Phenformin] (partner 250 µM) had a relative viability of 0.462.
Still for that read-out and setting: then `COCC1(CO)C(=O)C2CCN1CC2` (configuration not stated) [PRIMA-1MET] + Cc1nc(Nc2ncc(C(=O)Nc3c(C)cccc3Cl)s2)cc(N2CCN(CCO)CC2)n1 [Dasatinib] (partner 0.075 µM), with 0.347.

Still in this test, the particulars now being: first compound 6.325 µM.
Take `COCC1(CO)C(=O)C2CCN1CC2` (configuration not stated) [PRIMA-1MET] + N=C(N)NC(=N)NCCc1ccccc1 [Phenformin] (partner 250 µM): the relative viability worked out at 0.608.
In turn, `COCC1(CO)C(=O)C2CCN1CC2` (configuration not stated) [PRIMA-1MET] + CC(=O)c1c(C)c2cnc(Nc3ccc(N4CCNCC4)cn3)nc2n(C2CCCC2)c1=O [Palbociclib] (partner 0.5 µM) registered a relative viability of 0.535.
Same read-out and setting: then `COCC1(CO)C(=O)C2CCN1CC2` (configuration not stated) [PRIMA-1MET] + Cc1nc(Nc2ncc(C(=O)Nc3c(C)cccc3Cl)s2)cc(N2CCN(CCO)CC2)n1 [Dasatinib] (partner 0.075 µM), with 0.295.
On to `COCC1(CO)C(=O)C2CCN1CC2` (configuration not stated) [PRIMA-1MET] + O=C(c1cc(Cc2n[nH]c(=O)c3ccccc23)ccc1F)N1CCN(C(=O)C2CC2)CC1 [Olaparib] (partner 8 µM), for which the relative viability amounted to 0.395.

The same test, now with this note: first compound 20 µM.
As for `COCC1(CO)C(=O)C2CCN1CC2` (configuration not stated) [PRIMA-1MET] + N=C(N)NC(=N)NCCc1ccccc1 [Phenformin] (partner 250 µM), the relative viability turned out to be 0.543.
Still for that read-out and setting: next, `COCC1(CO)C(=O)C2CCN1CC2` (configuration not stated) [PRIMA-1MET] + CC(=O)c1c(C)c2cnc(Nc3ccc(N4CCNCC4)cn3)nc2n(C2CCCC2)c1=O [Palbociclib] (partner 0.5 µM): 0.463; `COCC1(CO)C(=O)C2CCN1CC2` (configuration not stated) [PRIMA-1MET] + Cc1nc(Nc2ncc(C(=O)Nc3c(C)cccc3Cl)s2)cc(N2CCN(CCO)CC2)n1 [Dasatinib] (partner 0.075 µM): 0.333.
On the same count and under the same terms, next, `COCC1(CO)C(=O)C2CCN1CC2` (configuration not stated) [PRIMA-1MET] + O=C(c1cc(Cc2n[nH]c(=O)c3ccccc23)ccc1F)N1CCN(C(=O)C2CC2)CC1 [Olaparib] (partner 8 µM): 0.337.

A further test has as its system NCI-H23. Described as above. The conditions noted are these: first compound 0.2 µM. Summed up: as §1
As for `COCC1(CO)C(=O)C2CCN1CC2` (configuration not stated) [PRIMA-1MET] + N=C(N)NC(=N)NCCc1ccccc1 [Phenformin] (partner 250 µM), the relative viability was determined as 0.854.
The same measure, in the same setting: then `COCC1(CO)C(=O)C2CCN1CC2` (configuration not stated) [PRIMA-1MET] + CC(=O)c1c(C)c2cnc(Nc3ccc(N4CCNCC4)cn3)nc2n(C2CCCC2)c1=O [Palbociclib] (partner 0.5 µM), with 0.469.
For the compound `COCC1(CO)C(=O)C2CCN1CC2` (configuration not stated) [PRIMA-1MET] + Cc1nc(Nc2ncc(C(=O)Nc3c(C)cccc3Cl)s2)cc(N2CCN(CCO)CC2)n1 [Dasatinib] (partner 0.075 µM), the relative viability turned out to be 0.692.
Still for that read-out and setting: next, `COCC1(CO)C(=O)C2CCN1CC2` (configuration not stated) [PRIMA-1MET] + O=C(c1cc(Cc2n[nH]c(=O)c3ccccc23)ccc1F)N1CCN(C(=O)C2CC2)CC1 [Olaparib] (partner 8 µM): 0.313.

The same test, now with this note: first compound 0.6325 µM.
In the case of `COCC1(CO)C(=O)C2CCN1CC2` (configuration not stated) [PRIMA-1MET] + N=C(N)NC(=N)NCCc1ccccc1 [Phenformin] (partner 250 µM), the relative viability was 0.772.

The record behind these values is the supplement of paper PMC10307832.
